# Data reported in patent US8809344B2, “Compounds, compositions, and methods for control of hepatitis C viral infections” (priority 2008, dated 2014).
# Columns and labels:
# [1] = Cell viability (CC50) in the Clone VI RT-PCR experiment; assay type: cell-based; conditions: human, Experiment 1, genotype 1b
# Experimental: Inhibition of HCV replication by compound AP0080978 (enantiomer 2 from Example 1) was also assayed by exposing cells harboring either HCV genotype 1a, HCV genotype 1b, HCV genotype 2a replicons. […] Final DMSO percentage was 1% in a total volume of 1 ml. After a 72 hour treatment period, total RNA was extracted, quantified via RiboGreen™ assay (Invitrogen-Molecular Probes, Eugene, Oreg., USA), and equivalent amounts of RNA were subjected to quantitative RT-PCR to quantify HCV RNA levels. […] For each replicate culture, HCV RNA levels were measured by blot hybridization and normalized to β-actin RNA levels. Cytotoxicity was measured using an established neutral red dye uptake assay (Korba and Gerin (1992) Antiviral Res 19:55; Okuse et al (2005) Antiviral Res 65: 23). […] Activity and toxicity against genotype 2a was evaluated in Huh7 cells harboring a stable hRluc-containing subgenomic genotype 2a replicon containing sequence from both J6 and JFH1 strains. […]
# (§1) Additional compounds of formula (I) shown in FIG. 1 were also shown to inhibit HCV RNA replication. The effects of various compounds of formula (I) on HCV RNA replicon levels were determined by measuring HCV replicon RNA levels in cells treated with various concentrations of the compounds. […] Total RNA was extracted 72 hours later, and HCV and GAPDH RNA levels were quantified via quantitative RT-PCR. […]
# [2] = ATP viability assay (CellTiter-Glo) in replicon-harboring Huh7.5 cells; assay type: cell-based, human; conditions: human; 24 hours post-treatment; Huh7.5 cells harboring transient genotype 1b replicon
# Experimental: Inhibition of HCV replication by AP0089652, AP0080978 (enantiomer 2 from Example 1) and AP0080977 (enantiomer 1 from Example 1) were assayed by exposing cells harboring an HCV genotype 1b replicons to the compounds and quantitating HCV replicon levels following exposure. The replicon used in these studies was a transient genotype 1b subgenomic replicon generated from the Con1 strain. In this replicon, the HCV internal ribosome entry site (IRES) within the 5′ non-translated region (NTR) drives expression of the first 32 amino acids of the core protein fused to humanized Renilla luciferase (hRluc). The encephalomycarditis IRES lies 3′ to the hRluc open reading frame (ORF) and drives expression of non-structural (NS) proteins NS3 through NS5B. Huh7.5 cells (U.S. patent application Ser. No. 10/534,571) harboring this replicon were seeded into 96-well plates at 20,000 cells per well in medium containing 10% FBS, 1× penicillin/streptomycin, 1× non-essential amino acids, and 100 ng/ml Fungizone. After a four hour attachment period, compound was added to wells using a five point 3-fold serial dilution series with four replicate treatments per dose. […] Compound-mediated HCV inhibition and toxicity were assayed 24 hours post-treatment using Renilla luciferase readout and an ATP viability assay (CellTiter-Glo, Promega, Madison, Wis., USA), respectively. […]
# [3] = system: stable genotype 1b (Con1 strain) subgenomic replicon; experiment: Log10 decrease in HCV replicon RNA in Clone VI cells, quantitative RT-PCR relative to GAPDH; assay type: cell-based, hepatitis C virus; conditions: 20 μM compound, 72 hours
# Experimental: To quantify the effect of compound on HCV RNA replicon levels by measuring HCV replicon RNA levels, the Clone VI cell line, a human hepatoma cell line that contains a stable genotype 1b (Con1 strain) subgenomic replicon with the adaptive Ser1179Ile mutation was used (U.S. Pat. No. 7,049,428). Cells were seeded into 12-well plates (40,000 cells per well) in the absence of Geneticin™ (Invitrogen, Carlsbad, Calif., USA) and treated in triplicate four hours later with 20 μM compound, with a final DMSO percentage of 1% in a total volume of 1 ml. Total RNA was extracted 72 hours later, and HCV and GAPDH RNA levels were quantified via quantitative RT-PCR. The log 10 decrease in HCV RNA levels was quantified relative to GAPDH RNA levels using the comparative Ct (threshold cycle) method (Applied Biosystems, Foster City, Calif., USA).
# as §1
smiles,measurement,setting,value
"O=C(NCc1cccs1)c1nn2c(c1Cl)N[C@H](c1ccco1)C[C@@H]2C(F)(F)F (single isomer, unassigned) [Compound 80978]",CC50 at 72 h,[1],> 100 µM
same,CC50 at 24 h,[2],> 100 µM
same,Log RNA decrease at [μM],[3],1.16 @ 20 μM
